Source: patent publication US20260125357A1, “LACTATE ENHANCING COMPOUNDS AND USES THEREOF” (GLIAPHARM SA, priority 2022, published 2026)
pEC50: −log10 of the molar value.

Legend:
C57Bl/6J wild-type mice [1] = assay: Lactate and glucose biosensors, cerebral extracellular levels in freely moving mice; type: in vivo, mouse; conditions: per os, doses 10 to 30 mg/kg, 3 hours, AUC ratio vs vehicle
Description: (§1) All experiments were carried out in strict accordance with the Swiss Federal Guidelines for Animal Experimentation and were approved by the Cantonal Veterinary Office for Animal Experimentation (Canton of Geneva, Switzerland). Adult male C57Bl/6J wild-type mice weighting 18-28 g (8 to 12 weeks of age) were used (Charles River Laboratories). Animals were housed in groups of 3-5 in polypropylene cages (30×40×15 cm) with wire mesh top in a temperature (22±2° C.) and humidity (55±15%) controlled environment on a 12-hour light cycle (07.00-19.00 h lights on), except after surgeries when animal were housed individually. The samples (Vehicle or compounds of the invention) were administered per os (gavage) in a solution made of water supplemented with 0.4% hydroxypropyl methylcellulose (HPMC) Methocel 4 KM (w/v) and 0.25% Tween-20 (v/v), as previously described (Thackaberry et al., 2010, Toxicol Sci., 117(2):485-92). Concentrations of the compounds tested ranged from 3 to 30 mg/kg.
Cerebral extracellular levels of L-lactate and D-glucose were monitored in vivo using lactate and glucose biosensors (Pinnacle Technology), respectively, according to the manufacturer's instructions. Cannulae were surgically implanted in the medial prefrontal cortices (coordinates: −1.0 mm (to bregma), lateral+/−1.0 mm (to mideline), ventral −1.0 mm (to dura))) of isoflurane-anesthetized mice 5 to 7 days prior experiment. After surgery, mice were monitored closely and received analgesic treatment for at least 4 days. After mice had fully recovered from surgery, compounds of the invention of vehicle were administered per os as previously described and cerebral levels of extracellular lactate and glucose were dynamically recorded for 6 hours using biosensors. Mice were administered vehicle alone first, followed 3 hours later by vehicle or Compounds of the Invention. Concentrations of cerebral extracellular lactate and glucose were calculated from the biosensor electric signals using post-calibration values. […] Area Under the Curve (AUC) of lactate and glucose concentration curves were calculated using Graphad Prism and the ratio of AUC after drug over Vehicle administration was calculated. Extracellular concentrations of lactate and glucose were measured in real time in freely moving animals for 3 hours after administration of Vehicle or compounds (1) to (4) at doses ranging from 10 to 30 mg/kg (FIG. 5).

primary astrocytes [2] = assay: Extracellular medium acidification (SNARF5) assay in astrocytes; type: cell-based; conditions: Mus musculus, Astrocyte; astrocytes in vitro; compounds 10 nM to 30 μM; read-out: Activity (EC50 class, extracellular medium acidification SNARF5)
Description: To assess for the effect of the compounds of the invention, those were tested in primary mouse astrocytes and astrocytes differentiated from human-derived induced pluripotent stem cells (iPSCs). Secretion of lactate was measured indirectly through the acidification of extracellular medium using extracellular pH sensor SNARE-5F-(AND-6)-CAR (SNARF5) as described below.
(§2) Primary cultures of cerebrocortical astrocytes were obtained from 1 to 2-day-old OF1 mouse pups (Charles River Laboratories). Briefly, cortices were isolated and minced in small pieces under a dissecting microscope. The cells were incubated for 30 min at 37° C. in a solution containing 20 U/ml papain, 1 mM L-cysteine and 10 kU/ml DNase I. After dissociation, papain activity was stopped by the addition of fetal calf serum (FCS). Single-cell suspension was then obtained by mechanical dissociation, which consisted in cells trituration in a DMEM D7777 medium supplemented with 44 mm NaHCO3, 10 ml/L antibiotic/antimycotic solution and 10% FCS. The cells were seeded at an average density of ˜10′000 cells/cm^2 on poly-D-lysine coated 96- or 12-well culture plates, depending on their use, and grown in DMEM D7777 medium supplemented with 44 mm NaHCO3, 10 ml/L antibiotic/antimycotic solution and 10% FCS at 37° C. in a humidified atmosphere containing 5% CO2/95% air. Culture medium was renewed twice a week. Cells were stimulated and harvested between DIV14 and DIV17, when confluence and cell growth were optimal.
Secretion of lactate was measured indirectly through the acidification of extracellular medium using extracellular pH sensor SNARF-5F-(AND-6)-CAR (SNARF5). After washing cells twice with stimulation medium (DMEM (D5030, Sigma), 1 mM […], and 5 mM Glucose, pH 7.4) at 37° C., cells were stimulated with compounds at a final concentration ranging from 10 nM to 30 μM in 50 μl per well of stimulation medium supplemented with 10 μM of SNARF5 (Life Technologies Corporation). Each compound was tested in two different plates for duplicates. After 30, 60 and 90 min stimulation, fluorescence was read at exc. (excitation) 480 nm/emm. (emission) 580 nm and at exc 480 nm/emm. 630 nm. The ratio of fluorescence between 630 nm and 580 emission values, which is proportional to extracellular pH, was calculated. In each plate, 8 wells were used for negative controls (DMSO 0.1%) and 8 wells were used for positive controls (CCCP 2 μM in DMSO). Results are shown as % of positive control effect (0% and 100% being activities of the Veh and positive control, respectively).

primary astrocytes [3] = assay: MTT mitochondrial activity assay in primary astrocytes; type: cell-based, mouse; conditions: different concentrations, after 1.5 h or 24 h
Description: as §2
To monitor mitochondrial activity in astrocytes, which is linked to the metabolic process of glycolysis and production of lactate, astrocytes in 96-well plates were stimulated for 24 h (37° C. 5% CO2/95% air) with the compounds of the invention ranging from 10 nM to 10 μM.
After stimulation, 5 mg/ml thiazol blue tetrazolium bromide (MTT) in D5030 medium complemented with 5 mM D-glucose and 44 mM sodium bicarbonate (pH 7.2) was added to each well, and cells were incubated for 4 h at 37° C. (5% CO2). The medium was then removed and the amount of reduced MTT, i.e formazan, solubilized in DMSO (50 μl/well) was determined using a spectrophotometer (absorbance of 570 nm).
The mitochondrial activity was monitored in MTT colorimetric assay in primary astrocytes treated with Compounds (1), (2), (3), (4) (5), (9) and (10) at different concentrations after 1.5 h (FIG. 2 A, B, D, E, F, C, H, respectively) or 24 h (FIG. 2 H, I, K, L, M, J, N, respectively).

C57Bl/6J wild-type mice [4] = assay: 18F-FDG PET glucose uptake in the brain; type: in vivo, mouse; conditions: gavage, 30 mg/kg, vs Vehicle
Description: as §1
^18F-FDG PET Glucose uptake in the brain was measured in vivo using 18F-fluorodeoxyglucose (FDG) with positron emission tomography (PET) Scan. Mice were fasted for 12 hours before the scans PET/CT measurements. Compounds of the invention were administered by gavage, followed by an intraperitoneal injection of 5 MBq of ^18F-FDG in 300 μL of saline. […]

[5] = system: Wild-type (WT) and GLUT1-DS transgenic mice; assay: Grip strength test in WT and GLUT1-DS transgenic mice; type: in vivo, mouse; conditions: 10 mg/kg, after rotarod session
Source text: (§3) Heterozygous transgenic mice on 129/SvJ genetic background in which glucose transporter 1 (GLUT1) has been knocked down were used (GLUT1(+/−)) (Wang et al., 2016, Human Molecular Genetics, 15(7)). GLUT1-deficiency syndrome (GLUT1-DS) is a prototypic hypometabolic diseases caused by the mutation of GLUT1 and decreased levels of glucose and lactate in the brain (Tang et al., 2019, Annals of Clinical and Translational Neurology 6(9)). Mating colonies were composed of wild-type female mice and GLUT1-DS male mice, or GLUT1-DS female mice and wild-type male mice. F1 pups were genotyped after ear punching at weaning using PCR to determine genotype. Mice of 2 to 3 months of age were used.
Motor strength was measured on the grip strength test (Bioseb) after rotarod session. Wild-type (WT) and GLUT1-DS transgenic mice were placed with 4 paws on the grid and maximal grip strength was recorded over 2 sessions with 5 minutes apart. Maximal grip strength over the 2 sessions was recorded.

GLUT1-DS transgenic mice = assay: Rotarod motor function in GLUT1-DS transgenic mice; type: in vivo, mouse; conditions: single administration 10 mg/kg, 20 min before rotarod
Source text: as §3
Motor function was measured in wild-type (WT) and GLUT 1-DS transgenic mice in the rotarod after single administration of Veh. or compound (1) or (2) (10 mg/kg) 20 min before rotarod. Rotarod testing consisted in placing the mouse on an accelerating rotating rod (4 to 40 r.p.m.) during a maximum of 300 seconds. 3 consecutive sessions with 15 min apart were performed. Latency for the mouse to fall from the rod was recorded and the maximal latency over the 3 trials was used as a measure of motor function.

**Q.** How did the “extracellular glucose levels in the brain” value (C57Bl/6J wild-type mice [1]) turn out when `COc1cc2ccnc(Nc3ccc(S(C)(=O)=O)cc3)c2cc1O` [Compound 3, 6-methoxy-1-(4-methylsulfonylanilino)isoquinolin-7-ol] was run?
**A.** significantly increases extracellular glucose levels

**Q.** What about the “extracellular lactate levels in the brain” value (C57Bl/6J wild-type mice [1]) of the same compound?
**A.** significantly increases extracellular lactate levels

**Q.** And the pEC50 (primary astrocytes [2])?
**A.** > 6.00

**Q.** What about the “mitochondrial activity (MTT colorimetric assay)” value (primary astrocytes [3]) of the same compound?
**A.** none of the selected compounds had direct effect on mitochondrial activity

**Q.** Which “glucose uptake in the brain (18F-FDG in the whole brain)” value (C57Bl/6J wild-type mice [4]) does the source give for `COc1cc2ccnc(Cc3ccc(N4CCCC4=O)cc3)c2cc1OC` [Compound 1, 1-[4-[(6,7-dimethoxy-1-isoquinolyl)methyl]phenyl]pyrrolidin-2-one] here?
**A.** increases glucose uptake in the brain

**Q.** And the “extracellular glucose levels in the brain” value (C57Bl/6J wild-type mice [1])?
**A.** significantly increases extracellular glucose levels

**Q.** And the “extracellular lactate levels in the brain” value (C57Bl/6J wild-type mice [1])?
**A.** significantly increases extracellular lactate levels

**Q.** And the “muscle strength (grip strength)” value [5]?
**A.** did not lead to any difference on muscle strength

**Q.** And the “rotarod performance (latency to fall)” value (GLUT1-DS transgenic mice)?
**A.** increased rotarod performance

**Q.** And the pEC50 (primary astrocytes [2])?
**A.** > 6.00

**Q.** And the “mitochondrial activity (MTT colorimetric assay)” value (primary astrocytes [3])?
**A.** none of the selected compounds had direct effect on mitochondrial activity

**Q.** What does the source list for `COc1cc2c(Nc3ccc(S(C)(=O)=O)cc3)nccc2cc1O` [Compound 4, 7-methoxy-1-(4-methylsulfonylanilino)isoquinolin-6-ol]?
**A.** extracellular glucose levels in the brain (C57Bl/6J wild-type mice [1]): significantly increases extracellular glucose levels; extracellular lactate levels in the brain (C57Bl/6J wild-type mice [1]): significantly increases extracellular lactate levels; pEC50 (primary astrocytes [2]): > 6.00; mitochondrial activity (MTT colorimetric assay) (primary astrocytes [3]): none of the selected compounds had direct effect on mitochondrial activity
